Source: patent US8765908B2, “Compositions for improving bone mass” (The UAB Research Foundation, priority 2010, dated 2014)
“Also recorded” adds a separate entry of the source.

Legend:
primary BMMs = experiment: In vitro osteoclastogenesis assay (TRAP staining); type: cell-based, mouse; settings: TRAP stain
Procedure: Primary BMMs were cultured in 24-well tissue culture plates (5×10^4 cells/well) with a-MEM containing 10% heat-inactivated FBS in the presence of 0.02 volume of culture supernatant of M-CSF-producing cells (final M-CSF concentration 44 ng/ml) (Takeshita et al., 2000) and 100 ng of GST-RANKL (Lam et al., 2000). […]
293GPG cells were cultured in DMEM with 10% HI-FBS supplemented with tetracycline, puromycin, G418 and penicillin/streptomycin as previously described {2222). Plat-E cells were cultured in DMEM with 10% HI-FBS supplemented with puromycin, blasticidin and penicillin/streptomycin as previously described {Morita, 2000 3155/id}. The retroviral vectors were transiently transfected into 293GPG cells or Plat-E cells using Lipofectamine Plus Reagent (Invitrogen). Virus supernatant was collected at 48, 72 and 96 h after transfection. Cells were then infected with virus for 24 hours in the presence of M-CSF (220 ng/ml) and 8 μg/ml polybrene. Cells were further cultured in the presence of M-CSF (220 ng/ml) and 2 μg/ml puromycin for selection and expansion of transduced cells. Selected cells were subsequently used for various studies.
A scrambled siRNA sequence was designed to use as control (FIG. 3A). BMMs were uninfected or infected with retrovirus expressing scrambled RNA or RYBP siRNA. […]

RYBP = experiment: Western blot of RYBP expression in retrovirally infected BMMs; type: cell-based, mouse; settings: BMMs infected with retrovirus expressing siRNA; anti-RYBP Western blot
Procedure: Western blot analysis was performed as previously described (Xu et al., 2006; Liu et al., 2004). RAW264.7 cells cultured in DMEM containing 10% HI-FBS and penicillin/streptomycin were treated with RANKL (100 ng/ml) for various times before being lysed for Western blot analysis with anti-RYBP antibody from Abcam Inc (Cambridge, Mass.). Primary BMMs were normally cultured in α-MEM containing 10% HI-FBS and penicillin/streptomycin in the presence of M-CSF (44 ng/ml). Uninfected BMMs or BMMs infected with retrovirus encoding siRNA and/or tagged-RYBP were cultured in the presence of M-CSF (44 ng/ml) with or without RANKL (100 ng/ml) for various times and then lysed for Western blot analysis. For Western blot analysis of IP complex, all 35 μl of the eluted proteins from each IP assay was loaded for Western blot analysis with anti-HA antibody (Clontech Laboratories, Inc), anti-Myc antibody (Clontech Laboratories, Inc), anti-RYBP (Abcam Inc) antibody and anti-β-actin antibody (Santa Cruz Biotechnology).
293GPG cells were cultured in DMEM with 10% HI-FBS supplemented with tetracycline, puromycin, G418 and penicillin/streptomycin as previously described {2222). Plat-E cells were cultured in DMEM with 10% HI-FBS supplemented with puromycin, blasticidin and penicillin/streptomycin as previously described {Morita, 2000 3155/id}. […]

[1] = target: T1, 49-aa RANK segment (residues 498-546) containing the IVVY motif (Mus musculus, UniProt O35305); experiment: Two-hybrid screen of osteoclast precursor cDNA library; type: binding; settings: yeast AH109, medium stringency
T1 construct: expressed in transfected cells; host or cells: yeast strain AH109
T1 sequence (O35305 498-546): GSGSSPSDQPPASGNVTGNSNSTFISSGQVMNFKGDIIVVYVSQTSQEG
From the text: An osteoclast precursor cDNA library was constructed using CloneMiner™ cDNA Library Construction System from Invitrogen (Carlsbad, Calif.). Briefly, mRNA was isolated from mouse primary BMMs and used as template for cDNA synthesis. Synthesized cDNA was size fractionated by column chromatography and the desired size of cDNA (>500 bp) was pooled and cloned into pDONOR™222 vector with BP Clonase™ to make Osteoclast Precursor cDNA Entry Library. pGBKT7 AD Vector of MATCHMAKER Two-Hybrid System 3 (Invitrogen) was converted to a Gateway® destination vector using Gateway® Vector Conversion System (Invitrogen). The whole set of cDNA clones was then transferred from the Osteoclast Precursor cDNA Entry Library into the modified pGBKT7 AD Vector to prepare an Osteoclast Precursor Two-Hybrid cDNA Library.
A 49-aa RANK segment (residues 498-546) containing the IVVY (SEQ ID NO: 4) motif (residues 535-538) was used as bait in the two-hybrid screening. A mouse cDNA region encoding this 49-aa RANK fragment was cloned in frame into pGBKT7 DNA-BD Vector of the MATCHMAKER Two-Hybrid System 3 (Invitrogen). The resulting plasmid was named as pGBKT7 DNA-BD-RANK. […]

“RYBP siRNA: retrovirally expressed siRNA targeting the RYBP mRNA region encoding DPPSEA (AGCUUCACUAGGAGGAUCU)” was tested, and the osteoclastogenesis (primary BMMs; infected BMMs treated with M-CSF (44 ng/ml) and RANKL (100 ng/ml) for 4 days) was “inhibited osteoclastogenesis” and the RYBP expression (RYBP) was “significantly suppressed RYBP expression; also recorded: dramatically knocked down endogenous RYBP expression”.

B1: RYBP-HA: WT RYBP with HA tag at C-terminus, siRNA target region silently mutated (protein, UniProt Q8N488 1-228, looked up)
RING1 and YY1-binding protein: MTMGDKKSPTRPKRQAKPAADEGFWDCSVCTFRNSAEAFKCSICDVRKGTSTRKPRINSQLVAQQVAQQYATPPPPKKEKKEKVEKQDKEKPEKDKEISPSVTKKNTNKKTKPKSDILKDPPSEANSIQSANATTKTSETNHTSRPRLKNVDRSTAQQLAVTVGNVTVIITDFKEKTRSSSTSSSTVTSSAGSEQQNQSSSGSESTDKGSSRSSTPKGDMSAVNDESF
modifications: C-terminal HA tag
notes: WT RYBP with HA tag at C-terminus, siRNA target region silently mutated
B1 was tested, and the rescue of osteoclastogenesis (primary BMMs; BMMs co-infected with RYBP siRNA retrovirus, M-CSF and RANKL 4 days) was “effectively rescued osteoclastogenesis”.

B2: RYBP: RING1A and YY1 binding protein, amino acid sequence SEQ ID NO:2 (protein, listed as Mus sp.)
chain: MTMGDKKSPTRPKRQAKPAADEGFWDCSVCTFRNSAEAFKCSICDVRKGTSTRKPRINSQLVAQQVAQQYATPPPPKKEKKEKVEKPDKEKPEKDKDISPSVTKKNTNKKTKPKSDILKDPPSEANSIQSANATTKTSETNHTSRPRLKNVDRSTAQQLAVTVGNVTVIITDFKEKTRSSSTSSSTVTSSAGSEQQNQSSSGSESTDKGSSRSSTPKGDMSAVNDESF
B2 was tested, and the “affinity for the bait (time a clone takes to become blue)” value [1] was “highest affinity for the bait”.
